In patent US20110171279A1, “POLYETHYLENIMINE BIOCIDES” (NDSU RESEARCH FOUNDATION, priority 2009, published 2011):
Converted amounts (≈) assume the structure as drawn. Like-named read-outs stand apart in the source and are kept apart here.

Tests used:
Type in all cases: cell-based
Halomonas pacifica = assay: Growth reduction / MIC test against Halomonas pacifica; settings: for MIC: Bisbaumannia pacifica; for Percent reduction in growth of Halomonas pacifica: Table 6
Experimental: (§1) The antimicrobial properties of the Formulations were determined by measuring the minimum inhibitory concentration (MIC) or by using an adaptation of the MIC test. […] Additional details of the MIC method can be found at Andrews, J. M., Journal of Antimicrobial Chemotherapy (2001) 48, 5-16, incorporated herein by reference in its entirety.
In accordance with the MIC test, working solutions for each Formulation were prepared by dissolving 100 mg of each Formulation in 10 mL of methanol (Sigma-Aldrich) to generate a 10 mg/mL solution. Next, 10 ml of Guillard's F/2 medium was spiked with 200 μL of the 10 mg/mL Formulation solution to achieve a final concentration of 0.2 mg/mL.
0.2 mL of each H. pacifica concentration was added in triplicate to a 96-well plate. Additionally, 0.2 mL of Guillard's F/2 medium without any H. pacifica or Formulation and 0.2 mL of Guillard's F/2 medium with H. pacifica, but no Formulations, served as negative and positive growth controls, respectively. The 96-well plates were placed in an illuminated growth cabinet with a 16:8 light:dark cycle (photon flux density 33 μmol m^−2 s^−1) for 48 hrs at 18° C. and measured for chlorophyll fluorescence using a multi-well plate spectrophotometer (excitation: 360 nm; emission: 670 nm). The efficacy of each Formulation was measured by determining the percent reduction in diatom growth as a function of Formulation concentration.
(§2) The antimicrobial activity of Formulations 10-12, also derived from ETCS and PEI, was determined toward a suite of marine microorganisms, namely, Pseudoalteromonas atlantica, Cellulophaga lytica, Cobetia marina, and Halomonas pacifica. The antimicrobial activity of Formulations 10-12 was determined toward these marine microorganisms according to the methods of EXAMPLES 5-7. The MIC for each Formulation against each strain is compared to that of the PEI, ETCS, and TCS (alone) in Table 7.

[1] = tested on: Staphylococcus epidermidis; assay: Growth reduction / MIC test against Staphylococcus epidermidis in tryptic soy broth, absorbance 600 nm; settings: for Percent reduction in growth of Staphylococcus epidermidis: Table 2; for MIC: Staphylococcus epidermidis, read-out: S. epidermidis MIC
Experimental: as §1
In accordance with the MIC test, working solutions for each Formulation were prepared by dissolving 100 mg of each Formulation in 10 mL of methanol (Sigma-Aldrich) to generate a 10 mg/mL solution. Next, 10 ml of tryptic soy broth was spiked with 200 μL of the mg/mL Formulation solution to achieve a final concentration of 0.2 mg/mL.
0.2 mL of each concentration of each Formulation (spiked with S. epidermidis) was added in triplicate to a 96-well plate. Additionally, 0.2 mL of tryptic soy broth without any S. epidermidis or Formulation and 0.2 mL of tryptic soy broth with S. epidermidis, but no Formulations, served as negative and positive growth controls, respectively. Plates were then placed in an incubator, at 37° C. for 24 hrs (with shaking), and then measured for growth by taking absorbance measurements at 600 nm with a multi-well plate spectrophotometer (Synergy HT microplate reader, BioTek Instruments, Winooski, Vt.). The efficacy of each Formulation was measured by determining the percent reduction in bacterial growth as a function of Formulation concentration.
For comparison purposes a benzylpiperidino biocide (“Reference 1”) was prepared using ETCS and synthetic methods similar to those described in U.S. Pat. No. 5,036,077, issued Jul. 30, 1991, and incorporated by reference in its entirety. To make Reference 1, 3.9 g of ETCS and 2 g of 4-benzylpiperidine were reacted in 30 mL of methanol. The mixture was heated at 65° C. for 48 hours. Reaction completion was confirmed by ^1H NMR, ^13C NMR, HMQC (2D) NMR and elemental analysis. The antimicrobial activity of Formulations 69-77 and Reference 1 toward S. epidermidis was measured by determining the percent reduction in bacterial growth as a function of concentration, as was done above in EXAMPLE 3.

Cobetia marina = assay: MIC test against Cobetia marina
Experimental: as §1, §2

Navicula incerta = assay: Growth reduction / MIC test against Navicula incerta in Guillard's F/2 medium, chlorophyll fluorescence; settings: Table 12; read-out: N. incerta MIC
[2] = Formulation Concentration 0.78125 μg/mL
[3] = Formulation Concentration 1.5625 μg/mL
[4] = Formulation Concentration 3.125 μg/mL
[5] = Formulation Concentration 6.25 μg/mL
[6] = Formulation Concentration 12.5 μg/mL
[7] = Formulation Concentration 25 μg/mL
[8] = Formulation Concentration 50 μg/mL
[9] = Formulation Concentration 100 μg/mL

SMILES | Percent reduction in growth of Halomonas pacifica (Halomonas pacifica; [2]) | Percent reduction in growth of Halomonas pacifica (Halomonas pacifica; [3]) | Percent reduction in growth of Halomonas pacifica (Halomonas pacifica; [4]) | Percent reduction in growth of Halomonas pacifica (Halomonas pacifica; [5]) | Percent reduction in growth of Halomonas pacifica (Halomonas pacifica; [6]) | Percent reduction in growth of Halomonas pacifica (Halomonas pacifica; [7]) | Percent reduction in growth of Halomonas pacifica (Halomonas pacifica; [8]) | Percent reduction in growth of Halomonas pacifica (Halomonas pacifica; [9]) | Percent reduction in growth of Staphylococcus epidermidis [1, 2] | Percent reduction in growth of Staphylococcus epidermidis [1, 3] | Percent reduction in growth of Staphylococcus epidermidis [1, 4] | Percent reduction in growth of Staphylococcus epidermidis [1, 5] | Percent reduction in growth of Staphylococcus epidermidis [1, 6] | Percent reduction in growth of Staphylococcus epidermidis [1, 7] | Percent reduction in growth of Staphylococcus epidermidis [1, 8] | Percent reduction in growth of Staphylococcus epidermidis [1, 9] | also measured
Oc1cc(Cl)ccc1Oc1ccc(Cl)cc1Cl [TCS, triclosan] | 0.00% | 0.00% | 0.00% | 9.94% | 17.32% | 37.65% | 93.07% | 92.77% | 81.36% | 86.70% | 92.70% | 92.96% | 93.09% | 92.83% | 93.09% | 93.35% | MIC (Halomonas pacifica; read-out: H. pacifica MIC, Table 7): 50 to 100 µg/mL (≈ 173 to 345 µM); MIC (Halomonas pacifica; read-out: H. pacifica MIC, Table 12): 100 µg/mL (≈ 345 µM); MIC [1]: 0.781 µg/mL; MIC (Cobetia marina; read-out: C. marina MIC): > 100 µg/mL
Clc1ccc(Oc2ccc(Cl)cc2OCC2CO2)c(Cl)c1 (centres unmarked) [ETCS, 2-((5-chloro-2-(2,4-dichlorophenoxy)phenoxy)methyl)oxirane] | 0.00% | 11.15% | 11.78% | 12.90% | 16.72% | 16.08% | 7.01% | 0.00% | 0.00% | 9.43% | 8.30% | 16.36% | 18.64% | 17.39% | 22.16% | 9.55% | MIC (Halomonas pacifica; Table 7, read-out: H. pacifica MIC): > 100 µg/mL; H. pacifica MIC (Halomonas pacifica; Table 12): >100 µg/mL; MIC ([1]; Table 12): > 100 µg/mL; MIC (Cobetia marina; Table 7, read-out: C. marina MIC): > 100 µg/mL; MIC (Navicula incerta): > 100 µg/mL
